Measured values: PubChem BioAssay (NCI)
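Cells were grown in 96-well plates and exposed to each compound for 48 hours at five concentrations; endpoints were interpolated linearly between bracketing concentrations, or set to the highest concentration if not reached. TGI: concentration producing complete growth inhibition.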

Experiments:
Assay in all cases: NCI tumour cell line growth inhibition, 48 h
[1] = test system: M19-MEL melanoma
[2] = test system: DMS 273 small cell lung
[3] = test system: SNB-78 CNS
[4] = test system: XF 498 CNS
[5] = test system: DMS 114 small cell lung
[6] = test system: HOP-18 NSCLC
[7] = test system: LXFL 529 NSCLC
[8] = test system: SN12K1 renal
[9] = test system: P388/ADR leukemia
[10] = test system: P388 leukemia
[11] = test system: RXF-631 renal

SMILES	TGI [1]	TGI [2]	TGI [3]	TGI [4]	TGI [5]	TGI [6]	TGI [7]	TGI [8]	TGI [9]	TGI [10]	TGI [11]
CC1(C)O[C@@H](C[C@]2(C#N)C[C@H](CCl)OC(C)(C)O2)C[C@@H](C#N)O1	> 100 µM	> 100 µM	> 100 µM	> 100 µM	> 100 µM	> 100 µM	–	–	–	–	–
O=C(Nc1nn[nH]n1)c1nc(-c2ccccc2)cc(=O)[nH]1	> 100 µM	–	> 100 µM	> 100 µM	> 100 µM	–	> 100 µM	–	–	–	–
CCN(CC)CC1CCCCN1CC(=O)N1CC(C)C(=O)Nc2ccccc21 (configuration not stated)	> 100 µM	> 100 µM	–	–	> 100 µM	> 100 µM	> 100 µM	–	–	–	–
CCCCN(C)/N=N/c1nc[nH]c1C(N)=O	> 100 µM	> 100 µM	> 100 µM	95.5 µM	> 100 µM	> 100 µM	–	> 100 µM	> 100 µM	> 100 µM	–
[N-]=[N+]=NCC(O)Cn1cnc2c(NC(=O)c3ccccc3)ncnc21 (configuration not stated)	> 100 µM	> 100 µM	> 100 µM	> 100 µM	> 100 µM	> 100 µM	> 100 µM	–	–	–	–
CSc1cnc2ccccc2c1Sc1c[nH]c2ccccc2c1=O	34.6 µM	> 45.5 µM	> 100 µM	–	32.9 µM	67.8 µM	46.3 µM	–	–	–	–
Cc1c2ccncc2c(C)c2c1[nH]c1ccc(OCCN(C)C)cc12	2.17 µM	0.321 µM	3.2 µM	2.19 µM	–	2.76 µM	–	0.381 µM	0.128 µM	0.0675 µM	–
O=c1c2ccccc2nc2ccc3c(Cl)[nH][nH]c3c12	> 100 µM	> 100 µM	> 100 µM	–	> 100 µM	> 100 µM	> 100 µM	–	–	–	> 100 µM
CCC(=O)OC1CCn2c1nc1c2C(=O)C(C)=C(NC(C)=O)C1=N (configuration not stated)	0.365 µM	3.11 µM	6.05 µM	4.31 µM	3.53 µM	3.26 µM	–	–	–	–	–
CN(C)CC1CCC(CN(C)C)C(=O)C1=O (configuration not stated)	33.9 µM	31.2 µM	–	4.95 µM	12.9 µM	3.07 µM	3.09 µM	–	–	–	–
O=C1C2C=CC(n3[nH]c(=O)n(Cc4ccccc4)c3=O)CC2C(=O)N1c1ccc(Br)cc1 (configuration not stated)	> 100 µM	> 100 µM	> 100 µM	–	> 100 µM	> 100 µM	> 100 µM	–	–	–	–
COc1ccc(C)cc(=O)c1O	> 100 µM	> 100 µM	> 100 µM	–	50.4 µM	> 100 µM	> 100 µM	–	–	–	–
